Experimental data reported in patent US20220282217A1, “COMPOSITIONS AND METHODS FOR PREPARING T CELL COMPOSITIONS AND USES THEREOF” (priority 2019, published 2022).
Where a SMILES comes first, the peptide text is derived from it.

target: HLA-A02.01 (Homo sapiens, UniProt P04439, D140Y/D185E/D98H/E176V/E277Q/G131W/G231S/I119V/I121R/I166T/I218V/L300P/L318F/N151K/N90K/P208A/P217A/Q86G/Q94H/R138H/R169H/T345S); assay: Class I MHC peptide binding affinity (displacement of radiolabeled reference peptide); details: Observed Affinity (IC50; (nM)), allele A02.01
Description: In brief, MHCI complexes were prepared and bound to radiolabeled reference peptides. Peptides were incubated at varying concentrations with these complexes for 2 days, and the amount of remaining radiolabeled peptide bound to […] was measured using size exclusion gel-filtration.

| Structure (SMILES) | IC50 [nM] |
| --- | --- |
| CC[C@H](C)[C@H](NC(=O)[C@@H]1CCCN1C(=O)[C@H](CC(C)C)NC(=O)[C@@H](N)CC(C)C)C(=O)N1CCC[C@H]1C(=O)N1CCC[C@H]1C(=O)N[C@@H](CC(C)C)C(=O)N[C@@H](CO)C(=O)N1CCC[C@H]1C(=O)N[C@@H](CO)C(=O)O | 449 |
| CC(C)C[C@H](NC(=O)[C@H](CC(=O)O)NC(=O)[C@H](CO)NC(=O)[C@H](CCC(N)=O)NC(=O)[C@H](CCC(N)=O)NC(=O)[C@@H](N)CCC(N)=O)C(=O)N[C@@H](CCC(N)=O)C(=O)N1CCC[C@H]1C(=O)N1CCC[C@H]1C(=O)N[C@@H](C)C(=O)O (H-QQQSDLQPPA-OH; N-terminus and C-terminus assumed) | 646 |
| CC[C@H](C)[C@H](NC(=O)[C@H](CC(=O)O)NC(=O)[C@H](CC(C)C)NC(=O)[C@@H](N)CC(C)C)C(=O)N[C@@H](CC(C)C)C(=O)N[C@@H](CC(=O)O)C(=O)N[C@H](C(=O)N[C@@H](C)C(=O)NCC(=O)N[C@@H](CC(C)C)C(=O)O)[C@@H](C)O (H-LLDILDTAGL-OH; N-terminus and C-terminus assumed) | 716 |
| CC[C@H](C)[C@H](NC(=O)[C@H](CC(N)=O)NC(=O)[C@H](CCSC)NC(=O)[C@H](Cc1c[nH]cn1)NC(=O)[C@H](CC(N)=O)NC(=O)CNC(=O)[C@H](CC(C)C)NC(=O)[C@@H](N)Cc1ccc(O)cc1)C(=O)N[C@@H](C)C(=O)N[C@@H](CC(N)=O)C(=O)O (H-YLGNHMNIAN-OH; N-terminus and C-terminus assumed) | 1340 |
| CC(C)C[C@H](NC(=O)[C@@H](N)CC(C)C)C(=O)N[C@@H](CO)C(=O)N[C@H](C(=O)N1CCC[C@H]1C(=O)N1CCC[C@H]1C(=O)N[C@@H](CC(C)C)C(=O)N[C@@H](CO)C(=O)N1CCC[C@H]1C(=O)N[C@@H](CO)C(=O)O)[C@@H](C)O (H-LLSTPPLSPS-OH; N-terminus and C-terminus assumed) | 1770 |
| CC[C@H](C)[C@H](N)C(=O)N[C@H](C(=O)N[C@H](C(=O)N[C@@H](CCC(=O)O)C(=O)N[C@@H](Cc1ccccc1)C(=O)N[C@@H](CCSC)C(=O)N[C@H](C(=O)N[C@@H](Cc1ccc(O)cc1)C(=O)NCC(=O)O)[C@@H](C)O)[C@@H](C)CC)[C@@H](C)CC (H-IIIEFMTYG-OH; N-terminus and C-terminus assumed) | 779 |
| CC(C)C[C@H](NC(=O)[C@H](CC(=O)O)NC(=O)[C@H](CO)NC(=O)[C@H](CCC(N)=O)NC(=O)[C@@H](N)CCC(N)=O)C(=O)N[C@@H](CCC(N)=O)C(=O)N1CCC[C@H]1C(=O)N1CCC[C@H]1C(=O)N[C@@H](C)C(=O)O (H-QQSDLQPPA-OH; N-terminus and C-terminus assumed) | 70 |
| CC[C@H](C)[C@H](NC(=O)[C@H](CCC(N)=O)NC(=O)[C@@H](N)[C@@H](C)O)C(=O)N[C@@H](CO)C(=O)N[C@@H](CO)C(=O)N[C@@H](C)C(=O)N[C@H](C(=O)N[C@@H](CCC(=O)O)C(=O)N[C@@H](Cc1ccc(O)cc1)C(=O)N[C@@H](CC(C)C)C(=O)O)[C@@H](C)O (H-TQISSATEYL-OH; N-terminus and C-terminus assumed) | 2640 |

same assay, conditions: allele A02.01; read-out: Observed Affinity (IC50; (nM))

| IC50 [nM] | Structure (SMILES) |
| --- | --- |
| 101 | CC[C@H](C)[C@H](NC(=O)[C@H](CC(C)C)NC(=O)[C@@H]1CCCN1C(=O)[C@H](Cc1ccccc1)NC(=O)[C@H](CC(C)C)NC(=O)[C@H](CCC(=O)O)NC(=O)[C@@H]1CCCN1C(=O)CNC(=O)[C@@H](N)CCCCN)C(=O)O (H-KGPELFPLI-OH) |
| 781 | CC[C@H](C)[C@H](NC(=O)[C@H](Cc1ccc(O)cc1)NC(=O)[C@H](CCC(=O)O)NC(=O)CNC(=O)[C@H](CO)NC(=O)[C@H](Cc1ccccc1)NC(=O)[C@H](C)N)C(=O)N1CCC[C@H]1C(=O)N[C@H](C(=O)N[C@H](C(=O)O)C(C)C)[C@@H](C)O (H-AFSGEYIPTV-OH; N-terminus and C-terminus assumed) |
| 3030 | CC[C@H](C)[C@H](NC(=O)[C@@H]1CCCN1C(=O)[C@H](CCCNC(=N)N)NC(=O)[C@H](CCC(N)=O)NC(=O)[C@H](CC(N)=O)NC(=O)[C@H](CCSC)NC(=O)CN)C(=O)N[C@@H](CC(C)C)C(=O)N[C@H](C(=O)O)[C@@H](C)O (H-GMNQRPILT-OH; N-terminus and C-terminus assumed) |
| 139 | CSCC[C@H](NC(=O)[C@H](C)NC(=O)[C@H](CO)NC(=O)[C@H](CCSC)NC(=O)[C@H](CC(C)C)NC(=O)[C@H](C)N)C(=O)N[C@H](C(=O)N[C@H](C(=O)N[C@@H](CO)C(=O)O)[C@@H](C)O)[C@@H](C)O (H-ALMSAMTTS-OH; N-terminus and C-terminus assumed) |
| 8.1 | CC[C@H](C)[C@H](NC(=O)[C@H](C)N)C(=O)N[C@@H](CCC(N)=O)C(=O)N1CCC[C@H]1C(=O)N[C@H](C(=O)N[C@@H](CC(C)C)C(=O)N[C@@H](Cc1c[nH]c2ccccc12)C(=O)N[C@H](C(=O)N[C@H](C(=O)O)[C@@H](C)O)[C@@H](C)O)C(C)C (H-AIQPVLWTT-OH; N-terminus and C-terminus assumed) |
| 54.2 | CC(C)C[C@H](NC(=O)[C@H](C)NC(=O)[C@@H](NC(=O)[C@@H]1CCCN1C(=O)[C@@H](NC(=O)[C@H](CS)NC(=O)[C@H](CO)NC(=O)[C@H](CO)NC(=O)[C@H](CC(C)C)NC(=O)[C@@H](N)CCCNC(=N)N)C(C)C)C(C)C)C(=O)O [RLSSCVPVAL] (H-RLSSCVPVAL-OH; N-terminus and C-terminus assumed) |
| 7320 | CC[C@H](C)[C@H](N)C(=O)N[C@@H](CCSC)C(=O)N[C@@H](CO)C(=O)N[C@@H](CC(C)C)C(=O)N[C@@H](Cc1c[nH]c2ccccc12)C(=O)NCC(=O)N[C@@H](CC(C)C)C(=O)N[C@H](C(=O)N[C@@H](CO)C(=O)O)C(C)C (H-IMSLWGLVS-OH) |
| 741 | CC(C)C[C@H](NC(=O)[C@H](CC(C)C)NC(=O)[C@H](CC(C)C)NC(=O)[C@H](CC(=O)O)NC(=O)[C@H](CO)NC(=O)[C@H](CC(C)C)NC(=O)[C@@H]1CCCN1C(=O)[C@@H](NC(=O)[C@@H](NC(=O)[C@@H](N)CC(N)=O)C(C)C)C(C)C)C(=O)O (H-NVVPLSDLLL-OH; N-terminus and C-terminus assumed) |

The next lines start with the compound.

| Structure (SMILES) | IC50 [nM] |
| --- | --- |
| CC[C@H](C)[C@H](NC(=O)[C@@H]1CCCN1C(=O)[C@H](CCCNC(=N)N)NC(=O)[C@H](Cc1c[nH]cn1)NC(=O)[C@@H]1CCCN1C(=O)[C@H](CS)NC(=O)[C@H](CCCNC(=N)N)NC(=O)[C@H](CCC(=O)O)NC(=O)[C@H](CC(C)C)NC(=O)[C@@H](N)C(C)C)C(=O)O | 15300 |
| CC[C@H](C)[C@H](N)C(=O)N[C@@H](CCC(N)=O)C(=O)N[C@@H](CC(C)C)C(=O)N[C@@H](CCC(N)=O)C(=O)N[C@@H](CC(=O)O)C(=O)N[C@@H](CCCCN)C(=O)N[C@@H](Cc1ccccc1)C(=O)N[C@@H](CCC(=O)O)C(=O)N[C@@H](Cc1c[nH]cn1)C(=O)N[C@@H](CC(C)C)C(=O)O | 4270 |
| CC[C@H](C)[C@H](N)C(=O)N[C@H](C(=O)N[C@@H](C)C(=O)N[C@@H](Cc1ccccc1)C(=O)N[C@@H](Cc1ccccc1)C(=O)N[C@@H](CC(C)C)C(=O)N[C@@H](CC(C)C)C(=O)N[C@@H](CC(=O)O)C(=O)N[C@H](C(=O)O)[C@@H](C)CC)[C@@H](C)O (H-ITAFFLLDI-OH; N-terminus and C-terminus assumed) | 78.7 |
| CC[C@H](C)[C@H](NC(=O)[C@@H](NC(=O)[C@@H](N)CC(C)C)[C@@H](C)O)C(=O)N[C@@H](CC(N)=O)C(=O)N[C@@H](CCCCN)C(=O)N[C@@H](CCC(=O)O)C(=O)N[C@@H](CCC(=O)O)C(=O)N[C@@H](C)C(=O)N[C@@H](CC(C)C)C(=O)O [LTINKEEAL] | 4410 |
| CC[C@H](C)[C@H](NC(=O)[C@H](CC(=O)O)NC(=O)[C@H](CC(C)C)NC(=O)[C@H](CC(C)C)NC(=O)[C@H](Cc1ccccc1)NC(=O)[C@H](Cc1ccccc1)NC(=O)[C@H](C)NC(=O)[C@@H](NC(=O)[C@@H](NC(=O)[C@@H](N)Cc1ccc(O)cc1)[C@@H](C)CC)[C@@H](C)O)C(=O)O (H-YITAFFLLDI-OH; N-terminus and C-terminus assumed) | 64.5 |
| CC(C)C[C@H](NC(=O)[C@H](Cc1ccccc1)NC(=O)[C@H](Cc1ccccc1)NC(=O)[C@H](CCCCN)NC(=O)[C@@H]1CCCN1C(=O)[C@H](Cc1c[nH]c2ccccc12)NC(=O)[C@H](CCCCN)NC(=O)[C@@H](NC(=O)[C@H](CC(C)C)NC(=O)[C@@H](N)Cc1ccc(O)cc1)[C@@H](C)O)C(=O)O (H-YLTKWPKFFL-OH; N-terminus and C-terminus assumed) | 42.9 |
| CC[C@H](C)[C@H](NC(=O)[C@H](CCC(N)=O)NC(=O)[C@H](Cc1c[nH]c2ccccc12)NC(=O)[C@H](Cc1ccccc1)NC(=O)CNC(=O)[C@H](CS)NC(=O)[C@H](CC(C)C)NC(=O)[C@H](C)NC(=O)[C@@H](N)Cc1ccccc1)C(=O)O (H-FALCGFWQI-OH; N-terminus and C-terminus assumed) | 0.4 |
| CC(C)[C@H](NC(=O)[C@H](Cc1c[nH]cn1)NC(=O)[C@@H](NC(=O)[C@H](CCC(=O)O)NC(=O)[C@H](Cc1ccccc1)NC(=O)[C@H](CO)NC(=O)[C@@H](N)CC(N)=O)C(C)C)C(=O)N[C@@H](CS)C(=O)N[C@@H](C)C(=O)O (H-NSFEVHVCA-OH; N-terminus and C-terminus assumed) | 503 |
| CC(C)C[C@H](NC(=O)[C@H](C)N)C(=O)N[C@@H](Cc1ccccc1)C(=O)N[C@@H](Cc1ccccc1)C(=O)N[C@@H](Cc1ccccc1)C(=O)N[C@@H](Cc1ccccc1)C(=O)N[C@@H](Cc1ccccc1)C(=O)N[C@@H](CCC(=O)O)C(=O)N[C@H](C(=O)O)[C@@H](C)O (H-ALFFFFFET-OH; N-terminus and C-terminus assumed) | 471 |
| CSCC[C@H](NC(=O)[C@H](CCCCN)NC(=O)CNC(=O)[C@H](CC(N)=O)NC(=O)[C@H](CCC(N)=O)NC(=O)[C@@H](N)Cc1ccccc1)C(=O)N[C@@H](C)C(=O)N[C@@H](CC(C)C)C(=O)N[C@@H](CO)C(=O)N[C@@H](C)C(=O)O | 6160 |
